Measurements as given in US20240238237A1, “CONJUGATED LINOLEIC ACID SUPPLEMENTATION FOR DISEASE TREATMENT” (VIRGINIA TECH INTELLECTUAL PROPERTIES, INC., priority 2021, published 2024).
“Also recorded” adds a separate entry of the source.

Experiments:
[1] = test system: WT, PWS (Snord116m+/p−) and PWS-KO (Snord116m−/p−) mice; experiment: Spontaneous wheel running; assay type: in vivo, mouse; conditions: post-study
Description: For the spontaneous/motivated wheel running analysis, mice were placed in wire-bottom cages equipped with computer-monitored running wheels (Mini-mitter, Sunriver, OR, USA) for a total of 4 days, and then returned to their home cages. The first two days were not recorded as these were considered acclimation days, and the last 48 h were used for data collection. Mice had ad lib access to food and water during this time. For the pre-week, regular mouse chow was provided. For the post-week measurements, mice were supplied with their study diet during testing.

N2KO mice = conditions: 20% fat diet, refs [13-16]; cited from earlier work
[2] = test system: Normal, Snord116m+/p− (PWS model) and PWS KO mice; experiment: Body weight, body fat and lean mass, 12-week feeding study, Example 2; assay type: in vivo, mouse; conditions: 12 weeks, CLA 0.5% per gram food
Description: Normal an d Snord116^m+/p− mice (PWS model), as well as mice with a complete deletion of Snord116 (PWS KO) were randomly divided into control or CLA-treatment groups. the diets (from Envigo/Harland-Teklad) were composed of 20% fat, and matched in all other components. Conjugated linoleic acid (Tonalin™, composed of 60%-90% of the cis-9, trans-11 and trans-10, cis-12 CLA isomers in a 50/50 ratio) was provided to the CLA-treatment groups to equal 0.5% per gram food intake.
Adult mice (aged 8-10 weeks) were housed individually, and given ad libitum access to either control or CLA food for 12 weeks. They were weighed weekly, and food intake, body fat, body lean mass, and rectal temperature were measured weekly.

[3] = test system: cecal bacterial communities; experiment: Cecum microbiome analysis (16S rRNA sequencing); assay type: in vivo, mouse
Description: Cecal samples were flash-frozen in liquid nitrogen and stored at −80° C. DNA was isolated from cecal content using a DNeasy PowerSoil Pro Kit (Qiagen #47014) and the TissueLyser II (Qiagen #85300). Fifty nanograms of genomic DNA was utilized for amplifi-cation of the V4 variable region of the 16S rRNA gene using 515F/806R primers. Forward and reverse primers were barcoded to accommodate multiplexing up to 384 samples per run as described by Kozich and colleagues. Paired-end sequencing (2×250 bp) of pooled amplicons was carried out using an Illumina Miseq platform with ˜30% PhiX DNA.
Demultiplexing, adapter trimming, and generating the fastq files were performed au-tomatically using the Miseq Reporter on the instrument computer. Bioinformatics analysis was then conducted using the QIIME 2 platform. Denoising was performed with an initial quality filtering followed by the Deblur algorithm. Representative amplicon sequence variants (ASVs) were used to generate a phylogenetic tree with FastTree, and taxonomy was assigned using a Naive Bayes classifier trained on the Greengenes 13_8 reference. To evaluate diversity metrics, samples were rarefied to an even depth of 4397 quality-filtered reads. Beta diversity was assessed using the weighted Unifrac distances and visualized using the principal coordinate analysis (PCoA) plot.
Statistical analyses for microbiome data were performed in R v4.0.5. Differences in beta diversity were evaluated using permutational multivariate analysis of variance (PERMANOVA) with 999 permutations and including the weighted Unifrac distance matrix. The Kruskal-Wallis test was used to evaluate alpha metrics and taxonomic differences and the Dunn's test was used to evaluate pairwise multiple comparisons, with p-values corrected for multiple testing using the false discovery rate (FDR) approach.

[4] = test system: WT, PWS (Snord116m+/p−) and PWS-KO (Snord116m−/p−) mice; experiment: Weekly body weight, fat and lean mass (NMR), rectal temperature and food intake, Example 1; assay type: in vivo, mouse
Description: All animal protocols were approved by the Institutional Animal Care and Use Commit-tee at Virginia Tech. Mice with the Snord116 paternal deletion (B6[Cg]-Snord116tm1.1Uta/J Stock No: 008149|1-loxp (KO), Snord116del) were obtained from Jackson Laboratories and maintained on a C57Bl/6 background. Genotyping and breeding were performed as reported. WT mice for the study were siblings of either the PWS (Snord116m+/p−) or PWS-KO (Snord116m−/p−) mice. PWS mice were generated by crossing WT females and male mice who were Snord116m−/p+. Breeder males (Snord116m−/p+) were generated in separate crosses to inherited their deleted allele from a maternal chromosome so that they were considered phenotypically normal in regards to Snord116 expression. PWS-KO (Snord116m−/p−) mice were generated by using non-sibling male and female mice of the genotype Snord116m−/p+ who had inherited their deleted allele maternally. In this type of mating, 50% of the offspring would be heterozygous (and never used for mating or the study, as the origin of their deleted allele could not be determined), and 25% each would have WT alleles or would be PWS-KO. Mice were housed at room temperature at about 22° C. with 12 h light/dark cycles at 7 a.m. and 7 p.m. and ad-libitum access to food (4.5% crude fat) and water. Mice were weaned at 3 weeks old, genotyped using an ear snip, […]. ear tagged, and housed with littermates of the same sex. For tissue dissection, mice were euthanized by CO2 asphyxiation between 12 p.m. and 2 p.m.
Body weight, fat, and lean mass, rectal temperature, and food intake were measured weekly. For body weight, fat, and lean mass measurements, mice were weighed on Mondays using a standard scale, and then placed in a Bruker (Billrica, MA, USA) LF90 NMR machine using the mouse holder. Measurements were recorded in grams for fat and lean mass.
All values were expressed as mean+SEM unless indicated otherwise. Comparison of means between groups and calculation of p-values were made using JMP Pro15 software (Cary, NC, USA), with Tukey's post hoc analysis for multiple comparisons when overall p-values in the comparison were significant. For the responses of weight, fat, lean mass, temperature, and food intake shown in figures, a fitted least squares regression with effects of genotype, treatment, and genotype×treatment was analyzed for Week 12 data only. Responses of these dependent variables were also analyzed across the 12-week time period, adding in effects of week, week×treatment, and week×genotype. […] The responses that had pre-post measures (wheel running, elevated plus, fasting glucose, glucose tolerance) were analyzed separately for the pre and post time periods (no effect of time). Animals were grouped together for the pre time period, regardless of their assigned data, as all animals were on standard mouse chow at that time. […] Rotarod data were collected only during the post-period and analyzed with a response of time and effects of genotype, treatment, and genotype×treatment. For area-under-the-curve calculations, the formula function in JMP was used to calculate the area for individual animals pre and post, and then fit least squares regression model used for effects of genotype, treatment, and genotype×treatment.

conjugated linoleic acid [CLA]
24 h spontaneous wheel running [1]: non-significant
Outcomes of CLA treatment of N2KO mice (N2KO mice): weight loss, decreased body fat, increased metabolism, muscle mitochondrial biogenesis, and increased exercise performance
Lean (muscle) mass [2]: no changed; also recorded: did not change
Body fat ([2]; vs control diet): significant reduction
Body weight ([2]; vs control diet): significant reduction
Relative abundance of Cyanobacteria ([3]; CLA vs control diet, p=0.04): lower
Firmicutes phylum overall ([3]; H=3.74, p=0.59): not significantly affected
Sutterella sp. ([3]; H=13.8, p=0.02): significantly increased
Ruminococcus sp. ([3]; all genotypes): reduced
Turicibacter sp. ([3]; all genotypes, H=15.7, p=0.008): significantly reduced
Relative abundance of the other phyla ([3]; between diets, p>0.09): similar
α-diversity metrics ([3]; control vs CLA, p≤0.02): differed
β-diversity measures ([3]; weighted Unifrac): significantly impacted
Body fat, WT control diet more than WT CLA diet ([4]; WT mice, end of study): ~4 g
Reduction in body fat levels with treatment ([4]; all genotypes, vs control HFD alone): 3.6 fold
Body weight, overall effect of CLA diet ([4]; all three genotypes, 20% fat diet, vs control diet): significant reductions in body weight overall for the three genotypes
Body weight, post hoc per genotype ([4]; each genotype on CLA diet vs control diet): significant body weight reductions
Lean mass, treatment effect ([4]; whole model, 12 weeks): without a treatment effect
